Source: PubChem BioAssay AID248 (DTP/NCI, 2004)
Values joined by “and” are separate entries in the source; they are usually repeats but may differ in a detail not shown here. Equal entries are not always repeated. Inconclusive results and toxic doses are left out. Cut-off read from the data, not from the text of the source: active = T/C of 150% or more; inactive = T/C below 125%.

System: L1210 leukemia ip in BDF1 mice, survival T/C
Test: NCI In Vivo Anticancer Drug Screen. Data for tumor model L1210 Leukemia (intraperitoneal) in B6D2F1 (BDF1) mice
Conditions: endpoint: mean survival time, higher = longer survival
Outline: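 Transplantable tumor model; survival measured in treated vs vehicle control mice. Value = treated/control.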

[1] = dose: 50.0 mg/kg/injection, schedule: Q01DX009 (ip), vehicle: Klucel (hydroxypropylcellulose) (HPC)
[2] = dose: 100.0 mg/kg/injection, schedule: Q01DX009 (ip), vehicle: Klucel (hydroxypropylcellulose) (HPC)
[3] = dose: 100.0 mg/kg/injection, schedule: Q04DX003 (ip), vehicle: Klucel (hydroxypropylcellulose) (HPC)
[4] = dose: 200.0 mg/kg/injection, schedule: Q04DX003 (ip), vehicle: Klucel (hydroxypropylcellulose) (HPC)
[5] = dose: 400.0 mg/kg/injection, schedule: Q04DX003 (ip), vehicle: Klucel (hydroxypropylcellulose) (HPC)
[6] = dose: 200.0 mg/kg/injection, schedule: Q01DX009 (ip), vehicle: Klucel (hydroxypropylcellulose) (HPC)
[7] = dose: 400.0 mg/kg/injection, schedule: Q01DX009 (ip), vehicle: Klucel (hydroxypropylcellulose) (HPC)
[8] = dose: 25.0 mg/kg/injection, schedule: Q01DX009 (ip), vehicle: saline
[9] = dose: 50.0 mg/kg/injection, schedule: Q01DX009 (ip), vehicle: saline
[10] = dose: 100.0 mg/kg/injection, schedule: Q01DX001 (ip), vehicle: saline
[11] = dose: 100.0 mg/kg/injection, schedule: Q01DX009 (ip), vehicle: saline
[12] = dose: 100.0 mg/kg/injection, schedule: Q04DX003 (ip), vehicle: saline
[13] = dose: 200.0 mg/kg/injection, schedule: Q01DX001 (ip), vehicle: saline
[14] = dose: 400.0 mg/kg/injection, schedule: Q01DX001 (ip), vehicle: saline
[15] = dose: 50.0 mg/kg/injection, schedule: Q01DX001 (ip), vehicle: Klucel (hydroxypropylcellulose) (HPC)
[16] = dose: 100.0 mg/kg/injection, schedule: Q01DX001 (ip), vehicle: Klucel (hydroxypropylcellulose) (HPC)
[17] = dose: 100.0 mg/kg/injection, schedule: Q04DX002 (ip), vehicle: Klucel (hydroxypropylcellulose) (HPC)
[18] = dose: 200.0 mg/kg/injection, schedule: Q04DX002 (ip), vehicle: Klucel (hydroxypropylcellulose) (HPC)
[19] = dose: 400.0 mg/kg/injection, schedule: Q04DX002 (ip), vehicle: Klucel (hydroxypropylcellulose) (HPC)
[20] = dose: 200.0 mg/kg/injection, schedule: Q01DX001 (ip), vehicle: Klucel (hydroxypropylcellulose) (HPC)

Measured: T/C

O=C(CBr)NCC(S)c1ccc(Cl)cc1 (stereo not given)
inactive: [1] 97 % of control | [2] 95 % of control | [3] 93 % of control | [4] 88 % of control | [5] 102 % of control

O=C(O)c1ccccc1C(=O)c1ccc2c3c(cccc13)CC2
inactive: [2] 104 % of control | [3] 107 % of control | [6] 107 % of control | [4] 102 % of control | [7] 105 % of control | [5] 100 % of control

C=CS(=O)Cc1ccccc1 (stereo not given)
inactive: dose: 12.5 mg/kg/injection, schedule: Q04DX002 (ip), vehicle: saline 112 % of control | dose: 25.0 mg/kg/injection, schedule: Q04DX002 (ip), vehicle: saline 94 % of control | dose: 50.0 mg/kg/injection, schedule: Q04DX002 (ip), vehicle: saline 98 % of control

CC(O)C(O)C(=O)O (stereo not given)
inactive: [8] 95 % of control | [9] 90 % of control | [10] 96 % of control | [11] 95 % of control | [12] 108 % of control | [13] 102 % of control | dose: 200.0 mg/kg/injection, schedule: Q04DX003 (ip), vehicle: saline 101 % of control | [14] 96 % of control | dose: 400.0 mg/kg/injection, schedule: Q04DX003 (ip), vehicle: saline 94 % of control

Nc1ncnc(N)c1NC(=O)c1ccc([N+](=O)[O-])cc1
inactive: dose: 25.0 mg/kg/injection, schedule: Q01DX001 (ip), vehicle: Klucel (hydroxypropylcellulose) (HPC) 93 % of control | [15] 89 % of control | [16] 102 % of control

CCOc1ccc(Br)cc1/C=C(\C#N)c1ccc([N+](=O)[O-])cc1
inactive: dose: 25.0 mg/kg/injection, schedule: Q01DX009 (ip), vehicle: saline with Tween-80 92 % of control

CCC(C)C(CCCN1CCOCC1)(CNC(=O)CN(CC)CC)c1cccc2ccccc12 (stereo not given)
inactive: [8] 94 % of control | [9] 97 % of control | [11] 91 % of control | [12] 102 % of control

Cc1ccc(C(=O)OCc2ccccc2CN2CCOCC2)cc1
inactive: [17] 100 % of control | [18] 103 % of control | [19] 92 % of control

CC1CCCC2OC(=O)C(C(N)=O)C12 (stereo not given)
inactive: [10] 95 % of control | [13] 100 % of control | [14] 97 % of control

CCCCCN(CCCCC)CCC(=O)c1ccc2cc(Br)c3ccccc3c2c1
inactive: dose: 13.3 mg/kg/injection, schedule: Q01DX Z (ip), vehicle: methylcellulose (MC) 91 % of control | dose: 20.0 mg/kg/injection, schedule: Q01DX Z (ip), vehicle: methylcellulose (MC) 92 % of control | dose: 30.0 mg/kg/injection, schedule: Q01DX Z (ip), vehicle: methylcellulose (MC) 92 % of control

CNc1ccccc1C(N)=O
inactive: [2] 106 % of control | [3] 105 % of control | [6] 98 % of control | [4] 102 % of control | [7] 101 % of control | [5] 96 % of control

O=C(O)CCCc1nccc2ccccc12
inactive: dose: 75.0 mg/kg/injection, schedule: Q01DX001 (ip), vehicle: saline 102 % of control | dose: 150.0 mg/kg/injection, schedule: Q01DX001 (ip), vehicle: saline 92 % of control

CCOC(=S)Nc1ccccc1
inactive: [17] 103 % of control | [18] 90 % of control | [19] 107 % of control

Nc1ccn(C2OC(COC(c3ccccc3)(c3ccccc3)c3ccccc3)C(O)C2O)c(=O)n1 (stereo not given)
inactive: dose: 100.0 mg/kg/injection, schedule: Q01DX005 (ip), vehicle: saline 101 % of control | dose: 200.0 mg/kg/injection, schedule: Q01DX005 (ip), vehicle: saline 112 % of control

CCN(CC)C(=Nc1ccc(NC(=O)c2ccc(C(=O)Nc3ccc(N=C(c4ccccc4)N(CC)CC)cc3)cc2)cc1)c1ccccc1
inactive: dose: 15.0 mg/kg/injection, schedule: Q01DX Z (ip), vehicle: carboxymethylcellulose (CMC) 92 % of control | dose: 30.0 mg/kg/injection, schedule: Q01DX Z (ip), vehicle: carboxymethylcellulose (CMC) 93 % of control | dose: 60.0 mg/kg/injection, schedule: Q01DX Z (ip), vehicle: carboxymethylcellulose (CMC) 98 % of control | dose: 120.0 mg/kg/injection, schedule: Q01DX Z (ip), vehicle: carboxymethylcellulose (CMC) 114 % of control

CCCCC[CH2][Sn]([I])([CH2]C)[CH2]C
inactive: dose: 1.56 mg/kg/injection, schedule: Q01DX009 (ip), vehicle: saline 95 % of control | dose: 3.13 mg/kg/injection, schedule: Q01DX009 (ip), vehicle: saline 90 % of control

CC1CC(C#N)Nc2ccccc2N1 (stereo not given)
inactive: [15] 109 % of control | [1] 96 % of control | dose: 50.0 mg/kg/injection, schedule: Q04DX003 (ip), vehicle: Klucel (hydroxypropylcellulose) (HPC) 98 % of control | [16] 106 % of control | [2] 93 % of control and 121 % of control | [3] 100 % of control and 104 % of control | [20] 104 % of control | [6] 86 % of control | [4] 96 % of control and 90 % of control | [5] 101 % of control

CCN(CC)CCOc1cccc(OC)c1
inactive: [8] 95 % of control | [9] 96 % of control | dose: 75.0 mg/kg/injection, schedule: Q01DX009 (ip), vehicle: saline 95 % of control and 108 % of control

O=C(CCl)Nc1ccccc1S(=O)(=O)F
inactive: dose: 18.75 mg/kg/injection, schedule: Q01DX009 (ip), vehicle: carboxymethylcellulose (CMC) 91 % of control | dose: 37.5 mg/kg/injection, schedule: Q01DX009 (ip), vehicle: carboxymethylcellulose (CMC) 92 % of control | dose: 75.0 mg/kg/injection, schedule: Q01DX001 (ip), vehicle: carboxymethylcellulose (CMC) 98 % of control | dose: 75.0 mg/kg/injection, schedule: Q04DX003 (ip), vehicle: carboxymethylcellulose (CMC) 94 % of control | dose: 150.0 mg/kg/injection, schedule: Q01DX001 (ip), vehicle: carboxymethylcellulose (CMC) 93 % of control | dose: 150.0 mg/kg/injection, schedule: Q04DX003 (ip), vehicle: carboxymethylcellulose (CMC) 88 % of control | dose: 300.0 mg/kg/injection, schedule: Q01DX001 (ip), vehicle: carboxymethylcellulose (CMC) 97 % of control

CCCCCCCCCCSCCSCCSCCCCCCCCCC
inactive: [3] 94 % of control

O=[N+]([O-])c1cccc(OCCCOc2ccc(S(=O)(=O)F)cc2)c1
inactive: dose: 100.0 mg/kg/injection, schedule: Q01DX001 (ip), vehicle: saline with Tween-80 96 % of control | dose: 200.0 mg/kg/injection, schedule: Q01DX001 (ip), vehicle: saline with Tween-80 98 % of control | dose: 400.0 mg/kg/injection, schedule: Q01DX001 (ip), vehicle: saline with Tween-80 90 % of control

Cc1cccc(NC(=O)Nc2ccc(F)cc2)n1
inactive: [16] 94 % of control | [2] 98 % of control | [17] 98 % of control and 103 % of control | [3] 97 % of control | [20] 96 % of control | [6] 95 % of control | [18] 100 % of control and 102 % of control | [4] 100 % of control | dose: 400.0 mg/kg/injection, schedule: Q01DX001 (ip), vehicle: Klucel (hydroxypropylcellulose) (HPC) 86 % of control | [7] 95 % of control | [19] 105 % of control and 107 % of control | [5] 107 % of control
